Article PMC10492809, “A Bischler-Napieralski and homo-Mannich sequence enables diversified syntheses of sarpagine alkaloids and analogues” (Nature Communications, 2023)
Values joined by “and” are separate entries in the source; they are usually repeats but may differ in a detail not shown here. Equal entries are not always repeated. Where two headings read alike, the source gives them in different places.

Legend:
Type in all cases: cell-based
CT26 = assay: MTT cell viability assay, CT26
Protocol: (§1) All cell lines were cultured at 37 °C with 5% CO2 in a humidified incubator. HeLa cells were grown in MEM (Gibco) supplemented with 10% fetal bovine serum (FBS, Hyclone) and 1% penicillin/streptomycin (Gibco). MIA PaCa-2, MDA-MB-231, A549, MCF-7, A375 and BEAS-2B cells were grown in DMEM (Gibco) supplemented with 10% FBS and 1% penicillin/streptomycin. CT26, and HCT116 cells were grown in RPMI-1640 supplemented with 10% FBS and 1% penicillin/streptomycin. All cell lines were purchased from the National Collection of Authenticated Cell Cultures (China).
(§2) The antiproliferative activities of the prepared compounds against tested cell lines were evaluated using a standard (MTT)-based colorimetric assay. Cells were plated at a density of 3000 cells/well in 96-well plates and allowed to adhere overnight. Then cells were treated with varying concentrations of synthesized compounds for 72 h. At the end of treatment, 20 μL of thiazolyl blue tetrazolium bromide (MTT) solution (5 mg/mL) was added to each well. Cells were incubated for an additional 4 h at 37 °C and then the medium was removed and replaced with 200 μL of DMSO. The absorbance (OD490) was read on a microplate reader (SpectraMax i3x, Molecular Devices, US). In all experiments, three replicate wells were used for each drug concentration. Each assay was performed at least three times. The IC50 values were calculated by GraphPad Prism 9, which were the mean values derived from three independent experiments.

[1] = system: lung epithelial BEAS-2B cells; assay: MTT cytotoxicity towards normal cells, BEAS-2B; settings: for CC50: MTT, 72 h, cytotoxicity towards normal cells, mean of at least three independent experiments; for IC50: source data sheet, single values of three experiments
Protocol: as §1, §2

MDA-MB-231 = assay: MTT cell viability assay, MDA-MB-231
Protocol: as §1, §2

MIA PaCa-2 = assay: MTT cell viability assay, MIA PaCa-2
Protocol: as §1, §2

A549 = assay: MTT cell viability assay, A549
Protocol: as §1, §2

Hela = assay: MTT cell viability assay, Hela
Protocol: as §1, §2

A375 = assay: MTT cell viability assay, A375
Protocol: as §1, §2

HCT 116 = assay: MTT cell viability assay, HCT 116
Protocol: as §1, §2

MCF-7 = assay: MTT cell viability assay, MCF-7
Protocol: as §1, §2

cancer cell lines = assay: In vitro cancer cell assays (antiproliferation, cell line not given)
Protocol: as §1, §2

[2] = MTT cytotoxicity towards normal cells, BEAS-2B; settings: human; for IC50 at 72 h: BEAS-2B lung epithelial cells (normal cells), source data sheet, single values of three experiments; for CC50 at 72 h: BEAS-2B lung epithelial cells, MTT, cytotoxicity towards normal cells, mean of at least three independent experiments
Protocol: as §1, §2

[3] = MTT, 72 h, mean of at least three independent experiments, read-out: IC50 CT26
[4] = source data sheet, single values of three experiments, read-out: MTT IC50 CT-26
[5] = MTT, 72 h, mean of at least three independent experiments, read-out: IC50 MDA-MB-231
[6] = source data sheet, single values of three experiments, read-out: MTT IC50 MDA-MB-231
[7] = MTT, 72 h, mean of at least three independent experiments, read-out: IC50 MIA PaCa-2
[8] = source data sheet, single values of three experiments, read-out: MTT IC50 MIA PaCa-2
[9] = MTT, 72 h, mean of at least three independent experiments, read-out: IC50 A549
[10] = source data sheet, single values of three experiments, read-out: MTT IC50 A549
[11] = MTT, 72 h, mean of at least three independent experiments, read-out: IC50 Hela
[12] = source data sheet, single values of three experiments, read-out: MTT IC50 Hela
[13] = MTT, 72 h, mean of at least three independent experiments, read-out: IC50 A375
[14] = source data sheet, single values of three experiments, read-out: MTT IC50 A375
[15] = MTT, 72 h, mean of at least three independent experiments, read-out: IC50 HCT 116
[16] = source data sheet, single values of three experiments, read-out: MTT IC50 HCT-116
[17] = MTT, 72 h, mean of at least three independent experiments, read-out: IC50 MCF-7
[18] = source data sheet, single values of three experiments, read-out: MTT IC50 MCF-7
[19] = Mus musculus, CT26, 72 h, MTT, 72 h, mean of at least three independent experiments, read-out: IC50 CT26
[20] = Mus musculus, CT26, source data sheet, single values of three experiments, read-out: MTT IC50 CT-26
[21] = Homo sapiens, MDA-MB-231, 72 h, MTT, 72 h, mean of at least three independent experiments, read-out: IC50 MDA-MB-231
[22] = Homo sapiens, MDA-MB-231, source data sheet, single values of three experiments, read-out: MTT IC50 MDA-MB-231
[23] = Homo sapiens, MIA PaCa-2, 72 h, MTT, 72 h, mean of at least three independent experiments, read-out: IC50 MIA PaCa-2
[24] = Homo sapiens, MIA PaCa-2, source data sheet, single values of three experiments, read-out: MTT IC50 MIA PaCa-2
[25] = Homo sapiens, A549, 72 h, MTT, 72 h, mean of at least three independent experiments, read-out: IC50 A549
[26] = Homo sapiens, A549, source data sheet, single values of three experiments, read-out: MTT IC50 A549
[27] = Homo sapiens, HeLa, 72 h, MTT, 72 h, mean of at least three independent experiments, read-out: IC50 Hela
[28] = Homo sapiens, HeLa, source data sheet, single values of three experiments, read-out: MTT IC50 Hela
[29] = Homo sapiens, A-375, 72 h, MTT, 72 h, mean of at least three independent experiments, read-out: IC50 A375
[30] = Homo sapiens, A-375, source data sheet, single values of three experiments, read-out: MTT IC50 A375
[31] = Homo sapiens, HCT-116, 72 h, MTT, 72 h, mean of at least three independent experiments, read-out: IC50 HCT 116
[32] = Homo sapiens, HCT-116, source data sheet, single values of three experiments, read-out: MTT IC50 HCT-116
[33] = Homo sapiens, MCF7, 72 h, MTT, 72 h, mean of at least three independent experiments, read-out: IC50 MCF-7
[34] = Homo sapiens, MCF7, source data sheet, single values of three experiments, read-out: MTT IC50 MCF-7

SMILES | IC50 (CT26; [3]) [µM] | IC50 (CT26; [4]) | CC50 [1] [µM] | IC50 [1] [µM] | IC50 (MDA-MB-231; [5]) [µM] | IC50 (MDA-MB-231; [6]) | IC50 (MIA PaCa-2; [7]) [µM] | IC50 (MIA PaCa-2; [8]) | IC50 (A549; [9]) [µM] | IC50 (A549; [10]) | IC50 (Hela; [11]) [µM] | IC50 (Hela; [12]) | IC50 (A375; [13]) [µM] | IC50 (A375; [14]) | IC50 (HCT 116; [15]) [µM] | IC50 (HCT 116; [16]) | IC50 (MCF-7; [17]) [µM] | IC50 (MCF-7; [18]) | IC50 (CT26; [19]) [µM] | IC50 (CT26; [20]) [µM] | other results
C=C=C1CN2[C@H]3C[C@H]1[C@H](C=O)[C@@H]2Cc1c3n(S(=O)(=O)c2ccc(C)cc2)c2ccccc12 [Compound 15ad] | 8.14 | 10 µM and 7.29 µM and 7.11 µM | > 100 | > 100 | 3.07 | 3.01 µM and 3.83 µM and 2.38 µM | 12.1 | 12.3 µM and 14 µM and 10.1 µM | 10.4 | 9.24 µM and 12.1 µM and 10 µM | 4.37 | 5.18 µM and 4.35 µM and 3.58 µM | 3.57 | 5.01 µM and 2.69 µM and 3.01 µM | 5.25 | 6.65 µM and 4.08 µM and 5.02 µM | 11.3 | 10.5 µM and 14 µM and 9.22 µM |  |  | 
C=C=C1CN2[C@H]3C[C@H]1[C@H](C(=O)O)[C@@H]2Cc1c3n(S(=O)(=O)c2ccc(C)cc2)c2ccccc12 [Compound 15an] |  |  |  |  |  |  |  |  |  |  |  |  |  |  |  |  |  |  |  |  | loss in antiproliferation activity on replacing the aldehyde group (cancer cell lines; SAR statement in words): complete
C=C=C1CN2[C@H]3C[C@H]1[C@H](C=O)[C@@H]2Cc1c3n(S(=O)(=O)c2ccc(C(F)(F)F)cc2)c2ccccc12 [Compound 15am] |  |  |  |  |  |  |  |  |  |  |  |  |  |  |  |  |  |  |  |  | IC50 (cancer cell lines; cell line not given): > 50 µM
C=C=C1CN2[C@H]3C[C@H]1[C@H](C=O)[C@@H]2Cc1c3n(S(=O)(=O)c2ccc(C)cc2)c2cc(F)ccc12 [Compound 15aj] |  | 23.2 µM and 26 µM |  |  |  | 11.5 µM and 14.1 µM |  | 22.1 µM and 26 µM |  | 27.4 µM and 22.6 µM |  | 16.8 µM and 18.3 µM |  | 11.2 µM and 13.4 µM |  | 20.3 µM and 16.2 µM |  | 28.1 µM and 29.2 µM | 24.3 | 23.7 | IC50 at 72 h [2]: > 100 µM; CC50 at 72 h [2]: > 100 µM; IC50 (MDA-MB-231; [21]): 14 µM; IC50 (MDA-MB-231; [22]): 16.4 µM; IC50 (MIA PaCa-2; [23]): 24.1 µM; IC50 (MIA PaCa-2; [24]): 24.2 µM; IC50 (A549; [25]): 26.2 µM; IC50 (A549; [26]): 28.5 µM; IC50 (Hela; [27]): 18.8 µM; IC50 (Hela; [28]): 21.3 µM; IC50 (A375; [29]): 13.4 µM; IC50 (A375; [30]): 15.7 µM; IC50 (HCT 116; [31]): 18.9 µM; IC50 (HCT 116; [32]): 20.1 µM; IC50 (MCF-7; [33]): 30.3 µM; IC50 (MCF-7; [34]): 33.5 µM
C=C=C1CN2[C@H]3C[C@H]1[C@H](C=O)[C@@H]2Cc1c3n(S(=O)(=O)c2ccc(C)cc2)c2cc(Br)ccc12 [Compound 15ag] |  | 15.8 µM and 16.1 µM |  |  |  | 9.71 µM and 8.01 µM |  | 21.3 µM and 22 µM |  | 15.3 µM and 19.1 µM |  | 9.92 µM and 7.92 µM |  | 7.82 µM and 8.4 µM |  | 13 µM and 10.3 µM |  | 21.6 µM and 18.5 µM | 17.3 | 20 | IC50 at 72 h [2]: > 100 µM; CC50 at 72 h [2]: > 100 µM; IC50 (MDA-MB-231; [21]): 8.59 µM; IC50 (MDA-MB-231; [22]): 8.05 µM; IC50 (MIA PaCa-2; [23]): 22.8 µM; IC50 (MIA PaCa-2; [24]): 25 µM; IC50 (A549; [25]): 18.2 µM; IC50 (A549; [26]): 20.1 µM; IC50 (Hela; [27]): 9.89 µM; IC50 (Hela; [28]): 11.8 µM; IC50 (A375; [29]): 8.88 µM; IC50 (A375; [30]): 10.4 µM; IC50 (HCT 116; [31]): 12.4 µM; IC50 (HCT 116; [32]): 14 µM; IC50 (MCF-7; [33]): 20.9 µM; IC50 (MCF-7; [34]): 22.6 µM
C=C=C1CN2[C@H]3C[C@H]1[C@H](C=O)[C@@H]2Cc1c3n(S(=O)(=O)c2ccc(C)cc2)c2cccc(Br)c12 [Compound 15ae] | 30.1 | 32.8 µM and 27.5 µM and 30 µM | > 100 | > 100 | 25.4 | 25.1 µM and 24.3 µM and 26.8 µM | 40.3 | 39.9 µM and 44.1 µM and 36.8 µM | 42.9 | 44.1 µM and 40.9 µM and 43.6 µM | 32.1 | 34.5 µM and 31.3 µM and 30.4 µM | 20.4 | 23.6 µM and 17.1 µM and 20.5 µM | 28 | 30 µM and 26.1 µM and 27.9 µM | 32.1 | 35.2 µM and 29.7 µM and 31.4 µM |  |  | 
